From patent US11434227B2, “Broad spectrum antibacterial activity of novel bisbenzimidazoles targeting topoisomerase IA and the synergistic composition of bisbenzimidazole with efflux pump inhibitors against pathogenic bacteria” (Jawaharlal Nehru University (JNU), priority 2016, dated 2022)
In brackets after ≈: the same amount, converted by molar mass.

Experiments:
[1] = Synergistic effect of CCCP and HN12b in neutropenic thigh infection model; type: in vivo, Balb/c mice; details: HN12b 3 mg/kg bw + CCCP 3 mg/kg bw
[2] = tested on: efflux and porin genes (acrAB-tolC, emrAB-tolC, ompC, ompF) in E. coli K12 cells; experiment: Gene expression analysis by real-time qPCR; type: cell-based, Escherichia coli; details: E. coli K12 cells treated with ¼ MIC
[3] = tested on: isogenic efflux deleted strains; experiment: Susceptibility of isogenic efflux deleted strains versus wild type; type: cell-based, Escherichia coli; details: in comparison to wild type strains
Enterococcus sp. (432) = experiment: Susceptibility (MIC50/MIC90), broth microdilution
Description: (§1) MICs were determined by the broth microdilution method according to CLSI methods (Clinical and Laboratory Standards Institute, 2005). Inoculants were incubated at 37° C. on cation adjusted Mueller Hinton (MH) Broth for 18 to 24 h. Compound were dissolved in media to 10 doubling dilutions from 128 to 0.125 μg/mL. All the bacterial strains were grown in 96 well plate with low evaporation lid (Falcon, Becton Dickinson) in presence of derivatives of benzimidazoles at 0.125, 0.25, 0.5, 1, 2, 4, 8, 16, 32, 64, 128, 256 μg/mL concentrations. […] Plates were read by Tecan Micro-plate Reader at 600 nm.

Staphylococcus sp. (982) = experiment: Susceptibility (MIC50/MIC90), broth microdilution
Description: as §1

[4] = tested on: Staphylococcus sp. (1016); experiment: Susceptibility (MIC50/MIC90), broth microdilution; details: Staphylococcus
Description: as §1

Escherichia coli 385 = experiment: Susceptibility (MIC50/MIC90), broth microdilution
Description: as §1

[5] = tested on: Pseudomonas aeruginosa (MTCC1688); experiment: Susceptibility (MIC50/MIC90), broth microdilution
Description: as §1

[6] = tested on: Pseudomonas aeruginosa (MTCC 366); experiment: Susceptibility (MIC50/MIC90), broth microdilution; details: MTCC366
Description: as §1

[7] = tested on: Klebsiella planticola (K1164); experiment: Susceptibility (MIC50/MIC90), broth microdilution
Description: as §1

E. coli K12 = experiment: Susceptibility of E. coli K12 and mutants (MIC90); details: Escherichia coli
Description: as §1

E. coli K12 mutant ΔtolC = experiment: Susceptibility of E. coli K12 and mutants (MIC90); details: Escherichia coli
Description: as §1

E. coli 72^R = experiment: Susceptibility (MIC, PAE, MBC), broth microdilution; details: Escherichia coli
E. coli 118^R = experiment: as above; details: Escherichia coli
E. coli 85^R = experiment: as above; details: Escherichia coli
Description: as §1

E. coli 451^R = experiment: as above; details: Escherichia coli
Description: as §1

E. coli 151^R = experiment: as above; details: Escherichia coli
Description: as §1

E. coli 555^R = experiment: as above; details: Escherichia coli
Description: as §1

[8] = tested on: most of the pathogenic bacterial strains; experiment: MIC of HN12b in combination with efflux pump inhibitor; details: combination with CCCP and PAβN
Description: Briefly, the broth microdilution plates were inoculated with each test organism to yield the appropriate density (10^5 CFU/ml) in 100 μl Mueller-Hinton broth (MHB) and incubated for 24 h at 37° C. in ambient air. One well with no antibiotic was used as a positive growth control on each plate. Plates were read for visual turbidity, and results were recorded after 24 h of incubation at 37° C. in ambient air by using a magnifying mirror reader, as turbidity in wells indicated growth of the microorganism. The MIC was determined as the well in the microtiter plate with the lowest drug concentration at which there was no visible growth. […] MICAB was defined as the MIC of drug A in the presence of drug B; MICBA was defined as the MIC of drug B in the presence of drug A.

A. baumannii (MTCC1920) = experiment: HN12b in combination with efflux pump inhibitors (CB method, FICI)
Description: (§2) 96-well microtiter plates containing MIC25 concentrations of the Efflux pump inhibitor (CCCP, PAβN) and HN12b antimicrobial drugs alone and in CB combination were used. The MICs of the individual drugs HN12b, PAβN and CCCP (0.25 to 128 μg/ml) and of the combinations were determined using the broth microdilution technique as recommended by the CLSI. Briefly, the broth microdilution plates were inoculated with each test organism to yield the appropriate density (10^5 CFU/ml) in 100 μl Mueller-Hinton broth (MHB) and incubated for 24 h at 37° C. in ambient air. One well with no antibiotic was used as a positive growth control on each plate. Plates were read for visual turbidity, and results were recorded after 24 h of incubation at 37° C. in ambient air by using a magnifying mirror reader, as turbidity in wells indicated growth of the microorganism. The MIC was determined as the well in the microtiter plate with the lowest drug concentration at which there was no visible growth. […] MICAB was defined as the MIC of drug A in the presence of drug B; MICBA was defined as the MIC of drug B in the presence of drug A.
(§3) The fractional inhibitory concentration index (FICI) was calculated for each antibiotic in each combination by using the following formula: FICA+FICB=FICI, where FICA equals the MIC of drug A in combination divided by the MIC of drug A alone and FICB equals the MIC of drug B in combination divided by the MIC of drug B alone. The FICIs were interpreted as follows: FICI of ≤0.5 will correspond to synergy; FICI of >0.5 to ≤1 will correspond to additivity; FICI of >1 to ≤4 will correspond to no interaction (indifference), and FICI of >4 will correspond antagonism.

[9] = tested on: K. planticola (MTCC 2272); experiment: as above
Description: as §2, §3

P. aeruginosa (MTCC1688) = experiment: as above
Description: as §2, §3

[10] = tested on: Providencia sp. (MTCC 2102); experiment: as above; details: for FICI: Providencia sp. (MTCC 2102)
Description: as §2, §3

Providencia sp. (P592) = experiment: as above
Description: as §2, §3

[11] = A. baumannii (MTCC1920), HN12b + CCCP
[12] = K. planticola (MTCC 2272), HN12b + CCCP
[13] = P. aeruginosa (MTCC1688), HN12b + CCCP
[14] = Providencia sp. (P592), HN12b + PAβN

Compound: CCCN1CCN(c2nc3ccc(-c4nc5ccccc5[nH]4)cc3[nH]2)CC1 [HN12b, 2′-(4-propylpiperazine-1-yl)-1H, 3′H-2,5′-bibenzimidazole]
- in vivo efficacy in combination with CCCP [1]: further improves
- gene expression of efflux pumps and porins [2]: acrAB-tolC and emr AB-tolC activation and ompC and ompF down-regulation
- sensitisation of efflux deleted strains [3]: more sensitised
- MIC50 (Enterococcus sp. (432)): < 0.25 µg/mL
- MIC90 (Enterococcus sp. (432)): 8.25 µg/mL (≈ 22.9 µM)
- MIC50 (Staphylococcus sp. (982)): 0.44 µg/mL (≈ 1.22 µM)
- MIC90 (Staphylococcus sp. (982)): 7.44 µg/mL (≈ 20.6 µM)
- MIC50 [4]: 0.57 µg/mL (≈ 1.58 µM)
- MIC90 [4]: 4.57 µg/mL (≈ 12.7 µM)
- MIC50 (Escherichia coli 385): 1.5 µg/mL (≈ 4.16 µM)
- MIC90 (Escherichia coli 385): 3.3 µg/mL (≈ 9.15 µM)
- MIC50 [5]: > 128 µg/mL
- MIC90 [5]: 128 µg/mL (≈ 355 µM)
- MIC50 [6]: 19 µg/mL (≈ 52.7 µM)
- MIC90 [6]: 128 µg/mL (≈ 355 µM)
- MIC50 [7]: 34.4 µg/mL (≈ 95.5 µM)
- MIC90 [7]: 124 µg/mL (≈ 344 µM)
- MIC90 (E. coli K12): 8 µg/mL (≈ 22.2 µM)
- MIC90 (E. coli K12 mutant ΔtolC): 0.5 µg/mL (≈ 1.39 µM)
- MIC90 (E. coli 72^R): 3.1 µg/mL (≈ 8.6 µM)
- MBC (E. coli 118^R): 2 µg/mL (≈ 5.55 µM)
- MIC50 (E. coli 118^R): 1 µg/mL (≈ 2.77 µM)
- MIC90 (E. coli 118^R): 1.7 µg/mL (≈ 4.72 µM)
- MBC (E. coli 85^R): 2 µg/mL (≈ 5.55 µM)
- MIC50 (E. coli 85^R): 1 µg/mL (≈ 2.77 µM)
- MIC90 (E. coli 85^R): 1.7 µg/mL (≈ 4.72 µM)
- MBC (E. coli 451^R): 2 µg/mL (≈ 5.55 µM)
- MIC50 (E. coli 451^R): 1 µg/mL (≈ 2.77 µM)
- MIC90 (E. coli 451^R): 1.7 µg/mL (≈ 4.72 µM)
- MBC (E. coli 151^R): 2 µg/mL (≈ 5.55 µM)
- MIC50 (E. coli 151^R): 1 µg/mL (≈ 2.77 µM)
- MIC90 (E. coli 151^R): 1.7 µg/mL (≈ 4.72 µM)
- MBC (E. coli 555^R): 8 µg/mL (≈ 22.2 µM)
- MIC50 (E. coli 555^R): 4 µg/mL (≈ 11.1 µM)
- MIC90 (E. coli 555^R): 6.8 µg/mL (≈ 18.9 µM)
- reduction in MIC in combination with efflux pump inhibitor [8]: four to eight fold reduction in MIC
- FICI (A. baumannii (MTCC1920); [11]): 0.5
- Interpretation (A. baumannii (MTCC1920); [11]): Synergy (FICI of ≤0.5 will correspond to synergy)
- FICI (A. baumannii (MTCC1920); A. baumannii (MTCC1920), HN12b + PAβN): 0.9
- MIC90 (A. baumannii (MTCC1920); Acinetobacter baumannii, MTCC1920): > 128 µg/mL
- FICI [9, 12]: 0.5
- Interpretation [9, 12]: Synergy (FICI of ≤0.5 will correspond to synergy)
- FICI ([9]; K. planticola (MTCC 2272), HN12b + PAβN): 1
- MIC90 ([9]; Klebsiella planticola, MTCC2272): > 128 µg/mL
- FICI (P. aeruginosa (MTCC1688); [13]): 0.6
- Interpretation (P. aeruginosa (MTCC1688); [13]): Synergy (FICI of ≤0.5 will correspond to synergy)
- FICI (P. aeruginosa (MTCC1688); P. aeruginosa (MTCC1688), HN12b + PAβN): 1
- MIC90 (P. aeruginosa (MTCC1688); Pseudomonas aeruginosa, MTCC1688): > 128 µg/mL
- FICI ([10]; HN12b + CCCP): 0.6
- FICI ([10]; HN12b + PAβN): 1
- MIC90 ([10]; Providencia, MTCC2102): > 128 µg/mL
- MIC90 (Providencia sp. (P592); Providencia): 58 µg/mL
- FICI (Providencia sp. (P592); Providencia sp. (P592), HN12b + CCCP): 0.6
- FICI (Providencia sp. (P592); [14]): 0.4
- Interpretation (Providencia sp. (P592); [14]): Synergy (FICI of ≤0.5 will correspond to synergy)
